Data: PubChem BioAssay (NCI)
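The compound was tested at five concentrations on cells cultured in 96-well plates, with a 48-hour exposure period. GI50 = concentration required for 50% inhibition of growth. The concentration for full growth arrest is given as TGI.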

How the values were obtained:
Test in all cases: growth of human tumour cells (NCI), 48 h
SF-295 CNS = tested on: SF-295 CNS
UACC-257 melanoma = tested on: UACC-257 melanoma
786-0 renal = tested on: 786-0 renal
NCI-H460 lung = tested on: NCI-H460 lung
TK-10 renal = tested on: TK-10 renal
UACC-62 melanoma = tested on: UACC-62 melanoma
HCC-2998 colon = tested on: HCC-2998 colon
T-47D breast = tested on: T-47D breast
OVCAR-4 ovarian = tested on: OVCAR-4 ovarian
HS 578T breast = tested on: HS 578T breast
HL-60(TB) leukemia = tested on: HL-60(TB) leukemia
SF-539 CNS = tested on: SF-539 CNS
HCT-116 colon = tested on: HCT-116 colon
COLO 205 colon = tested on: COLO 205 colon
SW-620 colon = tested on: SW-620 colon
LOX IMVI melanoma = tested on: LOX IMVI melanoma
NCI/ADR-RES ovarian = tested on: NCI/ADR-RES ovarian
HOP-62 NSCLC = tested on: HOP-62 NSCLC
OVCAR-5 ovarian = tested on: OVCAR-5 ovarian
SK-MEL-2 melanoma = tested on: SK-MEL-2 melanoma
SNB-19 CNS = tested on: SNB-19 CNS
HOP-92 NSCLC = tested on: HOP-92 NSCLC
EKVX NSCLC = tested on: EKVX NSCLC
SK-MEL-5 melanoma = tested on: SK-MEL-5 melanoma
HCT-15 colon = tested on: HCT-15 colon
KM12 colon = tested on: KM12 colon
HT29 colon = tested on: HT29 colon
MOLT-4 leukemia = tested on: MOLT-4 leukemia
MDA-MB-435 = tested on: MDA-MB-435

Oc1ccc(CSc2nnc(-c3ccncc3)n2-c2ccccc2)c2cccnc12
GI50 (SF-295 CNS): 1.14 µM
TGI (SF-295 CNS): > 38.5 µM
GI50 (UACC-257 melanoma): 2.4 µM
TGI (UACC-257 melanoma): > 31.3 µM
GI50 (786-0 renal): 3.4 µM
TGI (786-0 renal): 20 µM
GI50 (NCI-H460 lung): 0.375 µM
TGI (NCI-H460 lung): 14.4 µM
GI50 (TK-10 renal): 3.25 µM
TGI (TK-10 renal): > 100 µM
GI50 (UACC-62 melanoma): 1.75 µM
TGI (UACC-62 melanoma): 7.52 µM
GI50 (HCC-2998 colon): 3.14 µM
TGI (HCC-2998 colon): > 100 µM
GI50 (T-47D breast): 1.44 µM
TGI (T-47D breast): > 45.4 µM
GI50 (OVCAR-4 ovarian): 3.18 µM
TGI (OVCAR-4 ovarian): > 100 µM
GI50 (HS 578T breast): 0.473 µM
TGI (HS 578T breast): > 84.8 µM
GI50 (HL-60(TB) leukemia): 0.677 µM
TGI (HL-60(TB) leukemia): 5.32 µM
GI50 (SF-539 CNS): 0.769 µM
TGI (SF-539 CNS): 31.3 µM
GI50 (HCT-116 colon): 0.376 µM
TGI (HCT-116 colon): > 100 µM
GI50 (COLO 205 colon): 19.2 µM
TGI (COLO 205 colon): > 80.4 µM
GI50 (SW-620 colon): 0.542 µM
TGI (SW-620 colon): > 100 µM
GI50 (LOX IMVI melanoma): 0.471 µM
TGI (LOX IMVI melanoma): > 27.9 µM
GI50 (NCI/ADR-RES ovarian): 0.309 µM
TGI (NCI/ADR-RES ovarian): > 26.4 µM
GI50 (HOP-62 NSCLC): 0.773 µM
TGI (HOP-62 NSCLC): 16.3 µM
GI50 (OVCAR-5 ovarian): 3.69 µM
TGI (OVCAR-5 ovarian): > 100 µM
GI50 (SK-MEL-2 melanoma): 0.628 µM
TGI (SK-MEL-2 melanoma): > 100 µM
GI50 (SNB-19 CNS): 0.453 µM
TGI (SNB-19 CNS): > 89.2 µM
GI50 (HOP-92 NSCLC): 0.192 µM
TGI (HOP-92 NSCLC): 0.628 µM
GI50 (EKVX NSCLC): 1.4 µM
TGI (EKVX NSCLC): 21.1 µM
GI50 (SK-MEL-5 melanoma): 0.761 µM
TGI (SK-MEL-5 melanoma): 5.6 µM
GI50 (HCT-15 colon): 0.363 µM
TGI (HCT-15 colon): > 100 µM
GI50 (KM12 colon): 2.27 µM
TGI (KM12 colon): > 100 µM
GI50 (HT29 colon): 3.87 µM
TGI (HT29 colon): > 100 µM
GI50 (MOLT-4 leukemia): 0.72 µM
TGI (MOLT-4 leukemia): > 100 µM
GI50 (MDA-MB-435): 0.462 µM
